Each block holds one molecule with its values, some of them ahead of it. Numbered stars: 1 amine (or outer) side, 2 acyl side, 3 side chain; on linkers, the order of the positions; unused ones are H or OH. Bridge positions count the residues as written; N and C are the ends. Square brackets hold non-standard residues; d marks the D form. Peptide text beside a SMILES is read from it. * marks the point of attachment. Pyrazinoyl(5-oxo-4H) = O=C(c1c[nH]c(=O)cn1)*; Isoxazole3carbonyl(5-Me) = Cc1cc(C(=O)*)no1; 1,2,3Thiadiazole5CO(4-Me) = Cc1nnsc1C(=O)*; Benzoyl(3-CF3) = O=C(c1cccc(C(F)(F)F)c1)*; Isoorotoyl = O=C(c1c[nH]c(=O)[nH]c1=O)*; Benzoyl(3,5-F2) = O=C(c1cc(F)cc(F)c1)*; Nicotinoyl(6-OMe) = COc1ccc(C(=O)*)cn1; 2Thenoyl(5-Cl) = O=C(c1ccc(Cl)s1)*; Benzoyl(4-Cl) = O=C(c1ccc(Cl)cc1)*; Pyrazinecarbonyl = O=C(c1cnccn1)*; Phenoxyacetyl = O=C(COc1ccccc1)*; X4 = O=C(c1cccc2c1OC(F)(F)O2)*; Cysteamide = C(CS[*:3])N[*:1]; X13 = O=C(c1ccc2[nH]cnc2c1)*; X3 = O=C(Cc1c[nH]c2ccccc12)*; X9 = COc1ccc(CC(=O)*)cc1OC; Isovaleryl = CC(C)CC(=O)*; X1 = O=C(/C=C/c1ccccc1)*; 2Furoyl = O=C(c1ccco1)*; Api = NC1(C(=O)O)CCNCC1; Dap = NC[C@H](N)C(=O)O; Bz = O=C(c1ccccc1)*; Mpa = O=C(O)CCS
Target: MDM2 (Homo sapiens, UniProt Q00987)
Sequence (Q00987 whole entry): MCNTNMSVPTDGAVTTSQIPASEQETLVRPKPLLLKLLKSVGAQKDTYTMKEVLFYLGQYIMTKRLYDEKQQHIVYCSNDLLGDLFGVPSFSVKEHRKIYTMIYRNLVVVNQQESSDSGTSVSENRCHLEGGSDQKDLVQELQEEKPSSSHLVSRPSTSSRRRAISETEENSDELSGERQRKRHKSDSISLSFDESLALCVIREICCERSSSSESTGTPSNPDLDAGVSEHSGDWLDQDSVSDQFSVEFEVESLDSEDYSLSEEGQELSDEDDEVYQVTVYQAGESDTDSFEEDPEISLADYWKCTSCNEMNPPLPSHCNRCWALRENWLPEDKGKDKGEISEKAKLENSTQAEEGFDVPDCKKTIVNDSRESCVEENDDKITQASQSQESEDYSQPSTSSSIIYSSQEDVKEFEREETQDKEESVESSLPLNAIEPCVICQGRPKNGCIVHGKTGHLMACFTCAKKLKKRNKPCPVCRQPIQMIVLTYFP
Assay: MDM2 binding screen: displacement of fluorescent p53 peptide probe FP53 (fluorescence polarization)
Settings: for fraction fluorescent probe displaced, Screen: initial screen; for fraction fluorescent probe displaced, Screen / fraction fluorescent probe displaced, Replicate: crude macrocycle reactions; for fraction fluorescent probe displaced: 10 µM macrocycle concentration, crude acylated macrocycle (scaffold Mpa-AA1-AA2-AA3 x carboxylic acid), p53-based fluorescent peptide, human MDM2
Outline: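 Macrocycle reaction products at a final 10 µM were tested for displacement of a p53-based fluorescent peptide from human MDM2. Fluorescence anisotropy (ex 485/em 535 nm) was read once per macrocycle at 25 °C.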

fraction fluorescent probe displaced, Screen (Acid 25): 0.22
fraction fluorescent probe displaced, Replicate (Acid 25): 0.15
SMILES: O=C1CCSSCCNC(=O)C2CCCN(C2)C(=O)C2CC(NC(=O)c3ccc(Cl)cc3)CN2C(=O)C(Cc2c[nH]c3ccccc23)N1 (centres unmarked) [X W D5 B4 Acid 25]

fraction fluorescent probe displaced, Screen (Acid 91): 0.16
fraction fluorescent probe displaced, Replicate (Acid 91): 0.09
SMILES: O=C(C=Cc1ccccc1)NC1CC2C(=O)N3CCCC(C3)C(=O)NCCSSCCC(=O)NC(Cc3c[nH]c4ccccc34)C(=O)N2C1 (centres unmarked) [X W D5 B4 Acid 91]

fraction fluorescent probe displaced, Screen (Acid 14): 0.14
fraction fluorescent probe displaced, Replicate (Acid 14): 0.17
SMILES: O=C1CCSSCCNC(=O)[C@@H]2CCCN2C(=O)C2(CCN(C(=O)c3ccc(Cl)s3)CC2)NC(=O)[C@H](Cc2c[nH]c3ccccc23)N1 [X W D6 B1 Acid 14] ([Mpa]W[Api](2Thenoyl(5-Cl))P-Cysteamide; disulfide 1-C)

fraction fluorescent probe displaced, Screen (Acid 25): 0.28
fraction fluorescent probe displaced, Replicate (Acid 25): 0.25
SMILES: O=C1CCSSCCNC(=O)[C@@H]2CCCN2C(=O)C2(CCN(C(=O)c3ccc(Cl)cc3)CC2)NC(=O)[C@H](Cc2c[nH]c3ccccc23)N1 [X W D6 B1 Acid 25] ([Mpa]W[Api](Benzoyl(4-Cl))P-Cysteamide; disulfide 1-C)

fraction fluorescent probe displaced, Screen (Acid 91): 0.14
fraction fluorescent probe displaced, Replicate (Acid 91): 0.0168
SMILES: O=C1CCSSCCNC(=O)[C@@H]2CCCN2C(=O)C2(CCN(C(=O)/C=C/c3ccccc3)CC2)NC(=O)[C@H](Cc2c[nH]c3ccccc23)N1 [X W D6 B1 Acid 91] ([Mpa]W[Api](X1)P-Cysteamide; disulfide 1-C)

fraction fluorescent probe displaced, Screen (Acid 25): 0.0244
fraction fluorescent probe displaced, Replicate (Acid 25): 0.0465
SMILES: O=C1CCNC(=O)C2(CCN(C(=O)c3ccc(Cl)cc3)CC2)NC(=O)[C@H](Cc2c[nH]c3ccccc23)NC(=O)CCSSCCN1 [X W D6 B2 Acid 25]

fraction fluorescent probe displaced, Screen (Acid 91): 0.32
fraction fluorescent probe displaced, Replicate (Acid 91): 0.0168
SMILES: O=C1CCNC(=O)C2(CCN(C(=O)C=Cc3ccccc3)CC2)NC(=O)C(Cc2c[nH]c3ccccc23)NC(=O)CCSSCCN1 (centres unmarked) [X W D6 B2 Acid 91]

fraction fluorescent probe displaced, Screen (Acid 14): 0.11
fraction fluorescent probe displaced, Replicate (Acid 14): 0.38
SMILES: O=C1CCSSCCNC(=O)C2CCCN(C2)C(=O)C2(CCN(C(=O)c3ccc(Cl)s3)CC2)NC(=O)C(Cc2c[nH]c3ccccc23)N1 (centres unmarked) [X W D6 B4 Acid 14]

fraction fluorescent probe displaced, Screen (Acid 25): 0.28
fraction fluorescent probe displaced, Replicate (Acid 25): 0.20
SMILES: O=C1CCSSCCNC(=O)C2CCCN(C2)C(=O)C2(CCN(C(=O)c3ccc(Cl)cc3)CC2)NC(=O)C(Cc2c[nH]c3ccccc23)N1 (centres unmarked) [X W D6 B4 Acid 25]

fraction fluorescent probe displaced, Screen (Acid 91): 0.11
fraction fluorescent probe displaced, Replicate (Acid 91): 0.09
SMILES: O=C1CCSSCCNC(=O)[C@H]2CCCN(C2)C(=O)C2(CCN(C(=O)/C=C/c3ccccc3)CC2)NC(=O)[C@H](Cc2c[nH]c3ccccc23)N1 [X W D6 B4 Acid 91]

fraction fluorescent probe displaced, Screen (Acid 14): 0.14
fraction fluorescent probe displaced, Replicate (Acid 14): 0.22
SMILES: O=C1CCSSCCNC(=O)c2cccc(c2)CNC(=O)C2(CCN(C(=O)c3ccc(Cl)s3)CC2)NC(=O)[C@H](Cc2c[nH]c3ccccc23)N1 [X W D6 B5 Acid 14]

fraction fluorescent probe displaced, Screen (Acid 25): 0.15
fraction fluorescent probe displaced, Replicate (Acid 25): 0.12
SMILES: O=C1CCSSCCNC(=O)c2cccc(c2)CNC(=O)C2(CCN(C(=O)c3ccc(Cl)cc3)CC2)NC(=O)C(Cc2c[nH]c3ccccc23)N1 (centres unmarked) [X W D6 B5 Acid 25]

fraction fluorescent probe displaced, Screen (Acid 91): 0.40
fraction fluorescent probe displaced, Replicate (Acid 91): 0.34
SMILES: O=C1CCSSCCNC(=O)c2cccc(c2)CNC(=O)C2(CCN(C(=O)/C=C/c3ccccc3)CC2)NC(=O)[C@H](Cc2c[nH]c3ccccc23)N1 [X W D6 B5 Acid 91]

fraction fluorescent probe displaced, Screen (Acid 14): 0.26
fraction fluorescent probe displaced, Replicate (Acid 14): 0.10
SMILES: O=C1CCNC(=O)C2CN(C(=O)c3ccc(Cl)s3)CCN2C(=O)C(Cc2c[nH]c3ccccc23)NC(=O)CCSSCCN1 (centres unmarked) [X W D7 B2 Acid 14]

fraction fluorescent probe displaced, Screen (Acid 25): 0.19
fraction fluorescent probe displaced, Replicate (Acid 25): 0.07
SMILES: O=C1CCNC(=O)C2CN(C(=O)c3ccc(Cl)cc3)CCN2C(=O)C(Cc2c[nH]c3ccccc23)NC(=O)CCSSCCN1 (centres unmarked) [X W D7 B2 Acid 25]

fraction fluorescent probe displaced, Screen (Acid 25): 0.15
fraction fluorescent probe displaced, Replicate (Acid 25): 0.07
SMILES: O=C1CCSSCCNC(=O)C2CCCN(C2)C(=O)C2CN(C(=O)c3ccc(Cl)cc3)CCN2C(=O)C(Cc2c[nH]c3ccccc23)N1 (centres unmarked) [X W D7 B4 Acid 25]

fraction fluorescent probe displaced, Screen (Acid 25): 0.12
fraction fluorescent probe displaced, Replicate (Acid 25): 0.10
SMILES: O=C1CCSSCCNC(=O)c2cccc(c2)CNC(=O)C2CN(C(=O)c3ccc(Cl)cc3)CCN2C(=O)[C@H](Cc2c[nH]c3ccccc23)N1 (some centres unmarked) [X W D7 B5 Acid 25]

fraction fluorescent probe displaced: 0.03497
SMILES: O=C(Cc1c[nH]c2ccccc12)NC[C@@H]1NC(=O)[C@@H]2CCCN2C(=O)CCSSCCNC(=O)[C@H](Cc2ccccc2)NC1=O [X-B1-D3-F + A12] ([Mpa]P[Dap](X3)F-Cysteamide; disulfide 1-C)

fraction fluorescent probe displaced: 0.2195
SMILES: O=C(NC[C@@H]1NC(=O)[C@@H]2CCCN2C(=O)CCSSCCNC(=O)[C@H](Cc2ccccc2)NC1=O)c1ccc(Cl)cc1 [X-B1-D3-F + A25] ([Mpa]P[Dap](Benzoyl(4-Cl))F-Cysteamide; disulfide 1-C)

The remaining lines, values behind:

SMILES: O=C(NC[C@@H]1NC(=O)[C@@H]2CCCN2C(=O)CCSSCCNC(=O)[C@H](Cc2ccccc2)NC1=O)c1ccccc1 [X-B1-D3-F + A1] ([Mpa]P[Dap](Bz)F-Cysteamide; disulfide 1-C)
fraction fluorescent probe displaced: -0.005048

SMILES: O=C(NC[C@@H]1NC(=O)[C@@H]2CCCN2C(=O)CCSSCCNC(=O)[C@H](Cc2ccccc2)NC1=O)c1cnccn1 [X-B1-D3-F + A2] ([Mpa]P[Dap](Pyrazinecarbonyl)F-Cysteamide; disulfide 1-C)
fraction fluorescent probe displaced: 0.08617

SMILES: Cc1cc(C(=O)NC[C@@H]2NC(=O)[C@@H]3CCCN3C(=O)CCSSCCNC(=O)[C@H](Cc3ccccc3)NC2=O)no1 [X-B1-D3-F + A3] ([Mpa]P[Dap](Isoxazole3carbonyl(5-Me))F-Cysteamide; disulfide 1-C)
fraction fluorescent probe displaced: 0.08125

SMILES: O=C(NC[C@@H]1NC(=O)[C@@H]2CCCN2C(=O)CCSSCCNC(=O)[C@H](Cc2ccccc2)NC1=O)c1ccc2[nH]cnc2c1 [X-B1-D3-F + A6] ([Mpa]P[Dap](X13)F-Cysteamide; disulfide 1-C)
fraction fluorescent probe displaced: -0.003922

SMILES: CC(=O)NC[C@@H]1NC(=O)[C@@H]2CCCN2C(=O)CCSSCCNC(=O)[C@H](Cc2ccccc2)NC1=O [X-B1-D3-F + A7] ([Mpa]P[Dap](Ac)F-Cysteamide; disulfide 1-C)
fraction fluorescent probe displaced: 0.02548

SMILES: CC(C)CC(=O)NC[C@@H]1NC(=O)[C@@H]2CCCN2C(=O)CCSSCCNC(=O)[C@H](Cc2ccccc2)NC1=O [X-B1-D3-F + A8] ([Mpa]P[Dap](Isovaleryl)F-Cysteamide; disulfide 1-C)
fraction fluorescent probe displaced: -0.02974

SMILES: O=C(NC[C@@H]1NC(=O)[C@@H]2CCCN2C(=O)CCSSCCNC(=O)[C@H](Cc2ccccc2)NC1=O)c1c[nH]c(=O)cn1 [X-B1-D3-F + A9] ([Mpa]P[Dap](Pyrazinoyl(5-oxo-4H))F-Cysteamide; disulfide 1-C)
fraction fluorescent probe displaced: -0.0026

SMILES: COc1ccc(C(=O)NC[C@@H]2NC(=O)[C@@H]3CCCN3C(=O)CCSSCCNC(=O)[C@H](Cc3ccccc3)NC2=O)cn1 [X-B1-D3-F + A10] ([Mpa]P[Dap](Nicotinoyl(6-OMe))F-Cysteamide; disulfide 1-C)
fraction fluorescent probe displaced: 0.01535

SMILES: O=C(NC[C@@H]1NC(=O)[C@@H]2CCCN2C(=O)CCSSCCNC(=O)[C@H](Cc2ccccc2)NC1=O)c1c[nH]c(=O)[nH]c1=O [X-B1-D3-F + A11] ([Mpa]P[Dap](Isoorotoyl)F-Cysteamide; disulfide 1-C)
fraction fluorescent probe displaced: 0.04782

SMILES: O=C(COc1ccccc1)NC[C@@H]1NC(=O)[C@@H]2CCCN2C(=O)CCSSCCNC(=O)[C@H](Cc2ccccc2)NC1=O [X-B1-D3-F + A13] ([Mpa]P[Dap](Phenoxyacetyl)F-Cysteamide; disulfide 1-C)
fraction fluorescent probe displaced: 0.1199

SMILES: O=C(NC[C@@H]1NC(=O)[C@@H]2CCCN2C(=O)CCSSCCNC(=O)[C@H](Cc2ccccc2)NC1=O)c1ccc(Cl)s1 [X-B1-D3-F + A14] ([Mpa]P[Dap](2Thenoyl(5-Cl))F-Cysteamide; disulfide 1-C)
fraction fluorescent probe displaced: 0.08192

SMILES: Cc1nnsc1C(=O)NC[C@@H]1NC(=O)[C@@H]2CCCN2C(=O)CCSSCCNC(=O)[C@H](Cc2ccccc2)NC1=O [X-B1-D3-F + A15] ([Mpa]P[Dap](1,2,3Thiadiazole5CO(4-Me))F-Cysteamide; disulfide 1-C)
fraction fluorescent probe displaced: -0.03374

SMILES: O=C(NC[C@@H]1NC(=O)[C@@H]2CCCN2C(=O)CCSSCCNC(=O)[C@H](Cc2ccccc2)NC1=O)c1ccco1 [X-B1-D3-F + A16] ([Mpa]P[Dap](2Furoyl)F-Cysteamide; disulfide 1-C)
fraction fluorescent probe displaced: -0.04895

SMILES: O=C(NC[C@@H]1NC(=O)[C@@H]2CCCN2C(=O)CCSSCCNC(=O)[C@H](Cc2ccccc2)NC1=O)c1cccc(C(F)(F)F)c1 [X-B1-D3-F + A18] ([Mpa]P[Dap](Benzoyl(3-CF3))F-Cysteamide; disulfide 1-C)
fraction fluorescent probe displaced: 0.09317

SMILES: O=C(NC[C@@H]1NC(=O)[C@@H]2CCCN2C(=O)CCSSCCNC(=O)[C@H](Cc2ccccc2)NC1=O)c1cc(F)cc(F)c1 [X-B1-D3-F + A23] ([Mpa]P[Dap](Benzoyl(3,5-F2))F-Cysteamide; disulfide 1-C)
fraction fluorescent probe displaced: 0.02873

SMILES: COc1ccc(CC(=O)NC[C@@H]2NC(=O)[C@@H]3CCCN3C(=O)CCSSCCNC(=O)[C@H](Cc3ccccc3)NC2=O)cc1OC [X-B1-D3-F + A37] ([Mpa]P[Dap](X9)F-Cysteamide; disulfide 1-C)
fraction fluorescent probe displaced: 0.02818

SMILES: O=C(NC[C@@H]1NC(=O)[C@@H]2CCCN2C(=O)CCSSCCNC(=O)[C@H](Cc2ccccc2)NC1=O)c1cccc2c1OC(F)(F)O2 [X-B1-D3-F + A38] ([Mpa]P[Dap](X4)F-Cysteamide; disulfide 1-C)
fraction fluorescent probe displaced: 0.06653

— article PMC9250534, “Synthesis and direct assay of large macrocycle diversities by combinatorial late-stage modification at picomole scale” (Nature Communications, 2022)
